Test results reported in paper PMC8950706, “Influence of Substitutions in the Binding Motif of Proline-Rich Antimicrobial Peptide ARV-1502 on 70S Ribosome Binding and Antimicrobial Activity” (International Journal of Molecular Sciences, 2022).
Entries after “also recorded” stand apart in the source; their conditions may differ. Square brackets hold non-standard residues; d marks the D form. Peptide text beside a SMILES is read from it. Ac6c = NC1(C(=O)O)CCCCC1

Tests used:
[1] = system: E. coli BW25113 ∆sbmA ∆mdtM; format: cell-based, Escherichia coli; details: for Minimal Inhibitory Concentration, 25% MHB2, ∆sbmA ∆mdtM: 25% MHB2, 37 °C; for Minimal Inhibitory Concentration, 25% MHB2, ∆sbmA ∆mdtM / Minimal Inhibitory Concentration, 33% TSB, ∆sbmA ∆mdtM: 20 h, at least duplicates on two days, * once on two days, ** duplicate on one day; for Minimal Inhibitory Concentration, 33% TSB, ∆sbmA ∆mdtM: 37 °C; for Effect of the additional mdtM knockout on antibacterial activity: ∆sbmA ∆mdtM compared with ∆sbmA
Description: MIC values were determined using a liquid broth micro dilution assay in sterile 96-well plates (polystyrene F-bottom, Greiner Bio-One GmbH) and a total volume of 100 μL per well. Aqueous peptide solutions (10 g/L) were serially twofold diluted in 25% Mueller-Hinton broth 2 (25% MBH2) or 33% tryptic soy broth (33% TSB) starting at a peptide concentration of 128 mg/L (50 μL/well). Overnight cultures of bacteria grown in 25% MHB2 (or 33% TSB) were diluted 30-fold in 25% MHB2 (or 33% TSB). After an incubation period of 4 h (37 °C, 200 rpm), cells were diluted to 1.5 × 10^7 cfu/mL, based on a McFarland test, and 50 μL were added to each well (final concentration of 7.5 × 10^6 […]). The plates were incubated (37 °C, 20 h) and the optical density was recorded at 595 nm using a microplate reader ([…]^TM, Beckmann Coulter). The MIC was defined as the lowest peptide concentration preventing visible bacterial growth.

E. coli 70S ribosome [2] = assay: Competitive FP binding screening assay with Cf-ARV-1502 (relative FP); design: species or system E. coli BW25113; details: for Ribosome Binding (%): competitive ribosome binding against Cf-ARV-1502 (relative FP; values match 1.2 µmol/L peptide), low value = strong competition
Description: E. coli 70S ribosomes were prepared using a previously described protocol that was slightly modified. Briefly, E. coli BW25113 was cultivated in Luria-Bertani (LB) medium and cells were harvested after reaching an optical density of ~4 at 600 nm by centrifugation (5000× g, 15 min, 4 °C, Rotor JLA 8.100, Avanti J-20 XP, Beckmann Coulter, Krefeld, Germany). The cell pellets were frozen and stored at −80 °C. Cells were resuspended in ribosome buffer (2 mL/g cells; 20 mmol/L HEPES-KOH, 6 mmol/L MgCl2, 30 mmol/L NH4Cl, 4 mmol/L 2-mercaptoethanol, pH 7.6). Lysozyme (0.25 g/L cell suspension) was added, and the mixture was incubated on ice for 30 min. Cells were disrupted using the bead mill homogenizer FastPrep-24™ 5G (40 s, 4 m/s, 6 cycles, MP Biomedicals Germany GmbH, Eschwege, Germany) and zirconia/silica beads (0.1 mm diameter). The lysate was centrifuged (1500× g, 5 min, 4 °C, Rotor S4180, Allegra 21R, Beckmann Coulter) and the supernatant was incubated with DNase (5 U/mL) on ice for 60 min. The cell debris was removed by two centrifugation steps (16,000× g, 30 min, 4 °C followed by 32,000× g, 60 min, 4 °C, Rotor JA 30.50 Ti, Avanti J-30I, Beckmann Coulter). The ribosome was pelleted by ultracentrifugation (165,000× g, 17 h, 4 °C, Rotor 70 Ti, Optima LE-80K, Beckmann Coulter), resuspended in ribosome buffer (0.1 mL/g pellet), and stored at −80 °C. The ribosome concentration was determined by recording the absorbance of RNA at 260 nm (NanoPhotometer NP80, Implen GmbH, München, Germany) assuming that 1 AU corresponds to a ribosome concentration of 28 nmol/L. The molecular weight of the E. coli 70S ribosome was assumed to be 2.3 MDa.
E. coli 70S ribosomes and Cf-ARV-1502 were incubated with four different concentrations of unlabeled peptides chosen based on the IC50 curves of reference peptide ARV-1502. Each peptide was diluted in ribosome buffer to obtain a concentration of 4.8 µmol/L and transferred to a 384-well-plate. Peptides were then twofold serially diluted in four steps from 4.8 to 0.6 µmol/L (20 µL). The ribosome extract was diluted in ribosome buffer to reach a concentration of 2 µmol/L and 10 µL were added to each well to obtain a final ribosome concentration of 0.5 µmol/L. Plates were centrifuged (2 min, 500× g, Rotor S2096, Allegra^TM 21R, Beckmann Coulter) and incubated at 28 °C for 90 min. Cf-labeled ARV-1502 was added (10 µL; final concentration of 20 nmol/L) and the plates were again centrifuged and incubated (28 °C, 90 min). After incubation, fluorescence polarization was recorded on a […]^TM microplate reader (λex = 485 nm, λem = 535 nm).
On each plate 12 minimum (30 µL ribosome buffer and 10 µL Cf-ARV-1502) and 12 maximum (20 µL ribosome buffer, 10 µL ribosome solution and 10 µL Cf-ARV-1502) control samples were added. Fluorescence polarization of screening samples was normalized to the fluorescence polarization of these control samples. All screening samples were measured in triplicates and the whole experiment was repeated once on another day.

E. coli 70S ribosome [3] = assay: Cell-free GFP expression assay (in vitro translation); format: biochemical; details: for In Vitro Translation (%): GFP expression remaining relative to control, concentration not given (higher concentration 50 µmol/L)
Text: Possible effects of ARV-1502 and its substituted analogs on the in vitro translation of the green fluorescent protein (GFP) were probed using the NEB PureExpress Delta RF123 Kit (New England Biolabs, Ipswich, MA, USA). The sfGFP DNA template was amplified from pY71sfGFP plasmid by PCR introducing an UAA stop codon. Release factor 1 (RF1) was 50fold diluted in Pure System Buffer (PSB) containing magnesium acetate (1 mol/L), monopotassium phosphate (0.5 mol/L, pH 7.3), potassium glutamate (1 mol/L), NH4Cl (1 mol/L), calcium chloride (0.5 mol/L), spermidine (1 mol/L), putrescine (0.1 mol/L), and DTT (0.1 mol/L). Each reaction used 35 ng of sfGFP template. Peptides were added at a final concentration of 5 µmol/L and 50 µmol/L. The reaction was started by adding Kit solutions A (2 µL) and B (1.5 µL), diluted RF1 (0.5 µL), sfGFP template (0.25 µL or water as negative control), PSB (0.25 µL), and peptide (0.5 µL or water), mixed, transferred into a black 384-well plate (flat bottom, Greiner Bio-One GmbH), and incubated (37 °C, 2 h). The fluorescence was recorded every 10 min (λexc = 485 nm, λem = 535 nm) in a microplate reader (Gemini EM, Molecular Devices LLC, San Jose, CA, USA).

[4] = control without unlabeled peptide = 100%, 0.5 µmol/L ribosome, 20 nmol/L Cf-ARV-1502, triplicates, repeated once on another day

Compound | Minimal Inhibitory Concentration, 25% MHB2, ∆sbmA ∆mdtM [1] [µg/mL] | Minimal Inhibitory Concentration, 33% TSB, ∆sbmA ∆mdtM [1] [µg/mL] | Effect of the additional mdtM knockout on antibacterial activity [1] | Ribosome Binding (%) (E. coli 70S ribosome [2]) | Relative FP at 1.2 µmol/L unlabeled peptide (E. coli 70S ribosome [2]; [4]) [%] | Relative FP at 2.4 µmol/L unlabeled peptide (E. coli 70S ribosome [2]; [4]) [%] | In Vitro Translation (%) (E. coli 70S ribosome [3]) | Reduction of GFP expression, 50 µmol/L peptide (E. coli 70S ribosome [3]; cell-free expression, peptide-to-ribosome ratio of 25, GFP fluorescence, 37 °C) | IC50 (E. coli 70S ribosome [3]; in vitro translation, Supplementary Figure S2, reference 4 is also given at the place, read-out: IC50 of inhibition of GFP expression) [nM] | Inhibition of Cf-ARV-1502 binding to the 70S ribosome (in words) (E. coli 70S ribosome [2]; Figure 3: peptide concentration 1.2 µmol/L) | Reduction of GFP fluorescence intensity, 10-fold lower concentration (5 µmol/L peptide) (E. coli 70S ribosome [3]; cell-free expression, 2.5-fold peptide excess, 37 °C) [%]
CC(C)C[C@H](NC(=O)[C@H](Cc1ccc(O)cc1)NC(=O)[C@@H]1CCCN1C(=O)[C@H](CCCNC(=N)N)NC(=O)[C@@H]1CCCN1C(=O)[C@H](CCCCN)NC(=O)[C@H](CC(=O)O)NC(=O)[C@@H]1CCCN1C(=O)[C@H](CCCNC(=N)N)NC(=O)C1(N)CCCCC1)C(=O)N1CCC[C@H]1C(=O)N[C@@H](CCCNC(=N)N)C(=O)N1CCC[C@H]1C(=O)N[C@@H](CCCNC(=N)N)C(=O)N1CCC[C@H]1C(=O)N1CCC[C@H]1C(=O)N[C@@H](CCCNC(=N)N)C(=O)N1CCC[C@H]1C(=O)N[C@H](C(=O)N[C@@H](CCCNC(=N)N)C(N)=O)C(C)C [ARV-1502] (H-[Ac6c]RPDKPRPYLPRPRPPRPVR-NH2) | 64 | 128 | further decreased | 40.9 ± 3.9 | 40.9 ± 3.9 | 32.1 ± 1.3 | 105.8 ± 0.9 | no significant effects; also recorded: not at all |  |  | 
CC[C@H](C)[C@H](NC(=O)[C@@H](CCCNC(=N)N)NC(=O)[C@H](CCCNC(=N)N)NC(=O)[C@@H]1CCCN1C(=O)[C@@H]1CCCN1C(=O)[C@H](CCCNC(=N)N)NC(=O)[C@@H]1CCCN1C(=O)[C@H](CCCNC(=N)N)NC(=O)[C@@H]1CCCN1C(=O)[C@H](CC(C)C)NC(=O)[C@H](Cc1ccc(O)cc1)NC(=O)[C@@H]1CCCN1C(=O)[C@@H]1CCCN1C(=O)[C@H](CCCCN)NC(=O)[C@H](CC(=O)O)NC(=O)[C@@H](N)C(C)C)C(=O)N[C@@H](Cc1ccc(O)cc1)C(=O)N[C@@H](CC(N)=O)C(=O)N[C@H](CCCNC(=N)N)C(N)=O [Onc112, reference compound] (H-VDKPPYLPRPRPPR[dR]IYN[dR]-NH2; N-terminus and C-terminus assumed) | 64 | 128 | weakened the activity | 32.1 ± 1.0 |  |  | 4.9 ± 0.3 |  | 150 |  | 
CC(C)C[C@H](NC(=O)[C@H](Cc1ccc(O)cc1)NC(=O)[C@@H]1CCCN1C(=O)[C@H](CCCNC(=N)N)NC(=O)[C@@H]1CCCN1C(=O)[C@H](CCCCN)NC(=O)[C@H](CCCCN)NC(=O)[C@@H]1CCCN1C(=O)[C@H](CCCNC(=N)N)NC(=O)C1(N)CCCCC1)C(=O)N1CCC[C@H]1C(=O)N[C@@H](CCCNC(=N)N)C(=O)N1CCC[C@H]1C(=O)N[C@@H](CCCNC(=N)N)C(=O)N1CCC[C@H]1C(=O)N1CCC[C@H]1C(=O)N[C@@H](CCCNC(=N)N)C(=O)N1CCC[C@H]1C(=O)N[C@H](C(=O)N[C@@H](CCCNC(=N)N)C(N)=O)C(C)C [Peptide 2] (H-[Ac6c]RPKKPRPYLPRPRPPRPVR-NH2; N-terminus and C-terminus assumed) |  |  | no effect | 40.3 ± 2.2 |  |  | 53.2 ± 8.2 |  |  | did not reduce the competition with Cf-ARV-1502 | 22
